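Each compound was tested at five concentrations against cells in 96-well plates for 48 hours. The concentration for 50% growth inhibition is given as GI50.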 Active and inactive are the calls of the source. Rule as the data show it: active = GI50 up to about 1.1 µM and inactive = higher.
Columns and labels:
Assay in all cases: inhibition of tumour cell growth, NCI panel, 48 h
A549 = tested on: A549
BT-549 = tested on: BT-549
CAKI-1 = tested on: CAKI-1
COLO 205 = tested on: COLO 205
HCC 2998 = tested on: HCC 2998
HCT-15 = tested on: HCT-15
HT-29 = tested on: HT-29
K562 = tested on: K562
LOX IMVI = tested on: LOX IMVI
MCF7 = tested on: MCF7
MDA-N = tested on: MDA-N
MOLT-4 = tested on: MOLT-4
OVCAR-3 = tested on: OVCAR-3
OVCAR-4 = tested on: OVCAR-4
SK-MEL-2 = tested on: SK-MEL-2
SNB-19 = tested on: SNB-19
SNB-75 = tested on: SNB-75
TK-10 = tested on: TK-10
U-251 = tested on: U-251
UACC-62 = tested on: UACC-62

Compound	GI50 (A549)	GI50 (BT-549)	GI50 (CAKI-1)	GI50 (COLO 205)	GI50 (HCC 2998)	GI50 (HCT-15)	GI50 (HT-29)	GI50 (K562)	GI50 (LOX IMVI)	GI50 (MCF7)	GI50 (MDA-N)	GI50 (MOLT-4)	GI50 (OVCAR-3)	GI50 (OVCAR-4)	GI50 (SK-MEL-2)	GI50 (SNB-19)	GI50 (SNB-75)	GI50 (TK-10)	GI50 (U-251)	GI50 (UACC-62)
O=c1cc(NNc2cccc(Cl)c2)[nH]c(=O)[nH]1	> 100 µM (inactive)	> 100 µM (inactive)	19.1 µM (inactive)	42.1 µM (inactive)	53 µM (inactive)	17.1 µM	80.2 µM (inactive)	29 µM (inactive)	15.4 µM (inactive)	1.88 µM (inactive)	73.8 µM (inactive)	19.8 µM (inactive)	17.3 µM (inactive)	> 100 µM (inactive)	42.4 µM (inactive)	46.3 µM (inactive)	88.5 µM (inactive)	20.8 µM (inactive)	> 100 µM (inactive)	31.6 µM (inactive)
CCC(C)C(=O)OC1CC2(C)C(c3ccoc3)OC(=O)CC23OC2(C)OC34C(OC(=O)C(C)C)C3(O)C(OC(=O)C5(C)OC5C)C5(C)CC3(O)C(C)(C5CC(=O)OC)C14O2 (configuration not stated)	34.3 µM (inactive)	60.7 µM (inactive)	57.3 µM (inactive)	20 µM (inactive)	66.8 µM (inactive)	40.6 µM	29.7 µM (inactive)	27.8 µM (inactive)	52.7 µM (inactive)	17.6 µM (inactive)	47.1 µM (inactive)	20.7 µM (inactive)	–	38.4 µM (inactive)	68.7 µM (inactive)	32.6 µM (inactive)	15.5 µM (inactive)	65 µM (inactive)	86.1 µM (inactive)	86.9 µM (inactive)
C=C1C2CCC3(CCC4C5(C)CCCC4(C=[N+](CCO)C5)C3C2)C1O (configuration not stated)	> 100 µM (inactive)	> 100 µM (inactive)	> 100 µM (inactive)	> 100 µM (inactive)	> 100 µM (inactive)	> 100 µM	> 100 µM (inactive)	> 10 µM (inactive)	> 100 µM (inactive)	> 100 µM (inactive)	> 100 µM (inactive)	–	> 100 µM (inactive)	> 100 µM (inactive)	> 100 µM (inactive)	> 100 µM (inactive)	> 100 µM (inactive)	> 100 µM (inactive)	> 100 µM (inactive)	> 100 µM (inactive)
Cc1c(C2CCSc3ccccc3N2)sc2ccccc12 (configuration not stated)	99.8 µM (inactive)	> 100 µM (inactive)	52.5 µM (inactive)	> 100 µM (inactive)	80.4 µM (inactive)	74.5 µM	54.8 µM (inactive)	51.5 µM (inactive)	> 100 µM (inactive)	62.2 µM (inactive)	39.8 µM (inactive)	77.3 µM (inactive)	> 100 µM (inactive)	62.7 µM (inactive)	> 100 µM (inactive)	> 100 µM (inactive)	98.2 µM (inactive)	> 100 µM (inactive)	> 100 µM (inactive)	> 100 µM (inactive)
OC1CSCCCSCCSCCCSC1	> 100 µM (inactive)	> 100 µM (inactive)	> 100 µM (inactive)	> 100 µM (inactive)	> 100 µM (inactive)	> 100 µM	> 100 µM (inactive)	> 100 µM (inactive)	> 100 µM (inactive)	> 100 µM (inactive)	> 100 µM (inactive)	12.1 µM (inactive)	> 100 µM (inactive)	> 100 µM (inactive)	> 100 µM (inactive)	> 100 µM (inactive)	> 100 µM (inactive)	> 100 µM (inactive)	> 100 µM (inactive)	> 100 µM (inactive)
CCOC(=O)C(NCc1cccc(C(F)(F)F)c1)(NC(=O)CC)C(F)(F)F (configuration not stated)	44.2 µM (inactive)	> 100 µM (inactive)	> 100 µM (inactive)	> 100 µM (inactive)	> 100 µM (inactive)	> 100 µM	> 100 µM (inactive)	> 100 µM (inactive)	> 100 µM (inactive)	> 100 µM (inactive)	> 100 µM (inactive)	82.6 µM (inactive)	> 100 µM (inactive)	> 100 µM (inactive)	> 100 µM (inactive)	> 100 µM (inactive)	63.5 µM (inactive)	> 100 µM (inactive)	> 100 µM (inactive)	96.6 µM (inactive)
CCOC(=O)c1cc(Br)c(-c2onc(C)c2Br)n1C	23.3 µM (inactive)	41.4 µM (inactive)	12.8 µM (inactive)	28.4 µM (inactive)	85.9 µM (inactive)	37.6 µM	–	30.5 µM (inactive)	34 µM (inactive)	23.6 µM (inactive)	43 µM (inactive)	15 µM (inactive)	31.6 µM (inactive)	38.5 µM (inactive)	36.6 µM (inactive)	46.2 µM (inactive)	18.1 µM (inactive)	66.8 µM (inactive)	43.1 µM (inactive)	27.9 µM (inactive)
O=C(O)c1cccc(/[As]=[As]\c2cccc(C(=O)O)c2)c1 (configuration not stated)	> 100 µM (inactive)	70.6 µM (inactive)	16.4 µM (inactive)	33 µM (inactive)	57.7 µM (inactive)	36.3 µM	49.3 µM (inactive)	34.7 µM (inactive)	18.2 µM (inactive)	32.9 µM (inactive)	61.1 µM (inactive)	30.3 µM (inactive)	34.4 µM (inactive)	51.9 µM (inactive)	21.7 µM (inactive)	32.2 µM (inactive)	21.5 µM (inactive)	23.2 µM (inactive)	15.7 µM (inactive)	33.3 µM (inactive)
CC(=O)OCC(=O)O[C@@H]1[C@H]2[C@@H](OC(=O)c3ccccc3)[C@@H](C)C[C@]2(O)[C@H](OC(C)=O)[C@@]2(C)C[C@]1(OC(C)=O)C[C@H]1C(=O)C(C)(C)[C@@H](OC(C)=O)[C@@H]12	3.66 µM (inactive)	> 25 µM (inactive)	17.1 µM (inactive)	4.75 µM (inactive)	9.38 µM (inactive)	> 25 µM	9.42 µM (inactive)	1.48 µM (inactive)	> 25 µM (inactive)	> 25 µM (inactive)	6.98 µM (inactive)	> 5.14 µM (inactive)	> 25 µM (inactive)	> 20.9 µM (inactive)	> 25 µM (inactive)	> 25 µM (inactive)	7.71 µM (inactive)	> 25 µM (inactive)	> 25 µM (inactive)	> 25 µM (inactive)
O=c1c(-c2ccc3c(c2)OCO3)coc2c3c(ccc12)OCO3	49.9 µM (inactive)	15.6 µM (inactive)	63.7 µM (inactive)	> 100 µM (inactive)	58.1 µM (inactive)	28.4 µM	–	> 100 µM (inactive)	45.2 µM (inactive)	15.9 µM (inactive)	93.5 µM (inactive)	> 100 µM (inactive)	28.5 µM (inactive)	24.8 µM (inactive)	95.9 µM (inactive)	21.4 µM (inactive)	23 µM (inactive)	19.1 µM (inactive)	37.6 µM (inactive)	76.7 µM (inactive)
CC(=O)NC1=C(C)C(=O)c2c(nc3n2CCC3OC(=O)c2ccccc2)C1=N (configuration not stated)	3.18 µM (inactive)	0.689 µM (active)	1.84 µM (inactive)	1.38 µM (inactive)	2.06 µM (inactive)	2.72 µM	0.973 µM (active)	1.79 µM (inactive)	0.406 µM (active)	0.755 µM (active)	0.182 µM (active)	1.84 µM (inactive)	0.552 µM (active)	0.518 µM (active)	1.76 µM (inactive)	3.48 µM (inactive)	2.37 µM (inactive)	3.5 µM (inactive)	3.22 µM (inactive)	0.314 µM (active)
COc1ccc(C2(CC(C)C)CCNC2)cc1OC (configuration not stated)	> 100 µM (inactive)	> 100 µM (inactive)	> 100 µM (inactive)	> 100 µM (inactive)	12.9 µM (inactive)	> 100 µM	39.1 µM (inactive)	> 100 µM (inactive)	> 100 µM (inactive)	84.1 µM (inactive)	> 100 µM (inactive)	–	–	> 100 µM (inactive)	> 100 µM (inactive)	> 100 µM (inactive)	8.18 µM (inactive)	> 100 µM (inactive)	> 100 µM (inactive)	> 100 µM (inactive)
C/C=C(/COC(C)=O)C(=O)OC1C=C(C=O)C(C)(C)C=C1C (configuration not stated)	> 100 µM (inactive)	> 100 µM (inactive)	> 100 µM (inactive)	> 100 µM (inactive)	> 100 µM (inactive)	> 100 µM	> 100 µM (inactive)	43.5 µM (inactive)	> 100 µM (inactive)	87.7 µM (inactive)	> 100 µM (inactive)	> 10 µM (inactive)	–	> 100 µM (inactive)	> 100 µM (inactive)	> 100 µM (inactive)	43.6 µM (inactive)	> 100 µM (inactive)	> 100 µM (inactive)	> 100 µM (inactive)
Clc1ccccc1C(SCc1ccccc1)SCc1ccccc1	> 100 µM (inactive)	> 100 µM (inactive)	> 100 µM (inactive)	> 100 µM (inactive)	> 100 µM (inactive)	75.2 µM	> 100 µM (inactive)	> 100 µM (inactive)	–	> 100 µM (inactive)	> 100 µM (inactive)	> 100 µM (inactive)	> 100 µM (inactive)	> 100 µM (inactive)	> 100 µM (inactive)	> 100 µM (inactive)	41.8 µM (inactive)	> 100 µM (inactive)	> 100 µM (inactive)	94.4 µM (inactive)

From ChEMBL document CHEMBL1201862, “PubChem BioAssay data set” (2004)
